Measured values as given in patent publication US10947575B2, “Rapid antimicrobial susceptibility test, based on an analysis of changes in morphology and growth pattern of a microbial cell under different concentrations of various antimicrobial agents, and automated cell image analysis system therefor” (priority 2014, dated 2021).
Like-named read-outs stand apart in the source and are kept apart here.

What was measured:
P. aeruginosa ATCC 27853 [1] = assay: AST by analysis of changes in morphology and growth pattern of a microbial cell (MAC 2.0 chip imaging); format: cell-based; details: Normal / Filament / Swelling
Description: (§1) Four reference strains (E. coli ATCC 25922, S. aureus ATCC 29213, P. aeruginosa ATCC 27853, and E. faecalis ATCC 29212) were used as objective strains, in accordance with Clinical and Laboratory Standards Institute (CLSI) guidelines. […] The bacterial cell in MAC 2.0TM (QuantaMatrix) was monitored through a S Plan Fluor ELWD 60X (NA 1.49) lens of an inverted optical microscope (Eclipse Ti-Nikon, IX71-Olympus) provided in a heating system, and then, an electron multiplying CCD camera (QuantEM:512SC Photometrics for Eclipse Ti) was used to obtain images of a region where is adjacent to an interface between the agarose well of MAC 2.0TM and the antimicrobial agents well, over time.

E. coli ATCC 25922 [2] = assay: as above; format: cell-based; details: Normal / Filament / Swelling
Description: as §1

P. aeruginosa ATCC 27853 [3] = assay: MIC by the proposed method (SCMA), from morphology and growth pattern changes; format: cell-based; details: time to result 3 hr
Description: (§2) The bacterial cell in MAC 2.0™ (QuantaMatrix) was monitored through a S Plan Fluor ELWD 60X (NA 1.49) lens of an inverted optical microscope (Eclipse Ti—Nikon, IX71—Olympus) provided in a heating system, and then, an electron multiplying CCD camera (QuantEM:512SC Photometrics for Eclipse Ti) was used to obtain images of a region where is adjacent to an interface between the agarose well of MAC 2.0™ and the antimicrobial agents well, over time. […] In the AST method according to the inventive concept, minimal inhibitory concentration (MIC) was measured using the changes in morphology and growth pattern of the four reference strains (i.e., E. coli ATCC 25922, S. aureus ATCC 29213, P. aeruginosa ATCC 27853, and E. faecalis ATCC 29212) and was compared with MIC quality control (QC) per CLSI guidelines.

E. coli ATCC 25922 [4] = assay: as above; format: cell-based; details: time to result 3 hr
Description: as §2

P. aeruginosa ATCC 27853 [5] = details: time to result 16~20 hr; cited from earlier work
E. coli ATCC 25922 [6] = details: time to result 16~20 hr; cited from earlier work
E. faecalis ATCC 29212 [7] = assay: AST by analysis of changes in morphology and growth pattern of a microbial cell (MAC 2.0 chip imaging); format: cell-based; details: RRG = relatively rapid growth, RSG = relatively slow growth
Description: as §1

S. aureus ATCC 29213 [8] = assay: as above; format: cell-based; details: RRG = relatively rapid growth, RSG = relatively slow growth
Description: as §1

S. aureus ATCC 29213 [9] = details: time to result 16~20 hr; cited from earlier work
E. faecalis ATCC 29212 [10] = assay: MIC by the proposed method (SCMA), from morphology and growth pattern changes; format: cell-based
Description: as §2

S. aureus ATCC 29213 [11] = assay: as above; format: cell-based
Description: as §2

E. faecalis ATCC 29212 [12] = details: time to result 16~20 hr, cited from earlier work
[13] = time to result 4 hr, unit assumed

Row | Compound | Criteria (change in morphology and growth pattern) (P. aeruginosa ATCC 27853 [1]) | Criteria (change in morphology and growth pattern) (E. coli ATCC 25922 [2]) | CLSI QC range (MIC) (P. aeruginosa ATCC 27853 [5]) | CLSI QC range (MIC) (E. coli ATCC 25922 [6]) | Criteria (change in morphology and growth pattern) (E. faecalis ATCC 29212 [7]) | Criteria (change in morphology and growth pattern) (S. aureus ATCC 29213 [8]) | CLSI QC range (MIC) (S. aureus ATCC 29213 [9]) | SCMA Results (MIC) (E. faecalis ATCC 29212 [10]; time to result 4 hr) | CLSI QC range (MIC) (E. faecalis ATCC 29212 [12]) | SCMA Results (MIC) (E. coli ATCC 25922 [4]; unit assumed) | other results
1 | NCC[C@H](O)C(=O)N[C@@H]1C[C@H](N)[C@@H](O[C@H]2O[C@H](CN)[C@@H](O)[C@H](O)[C@H]2O)[C@H](O)[C@H]1O[C@H]1O[C@H](CO)[C@@H](O)[C@H](N)[C@H]1O [Amikacin] | Normal | Normal growth | 1~4 | 0.5~4 | – | – | – | – | – | – | SCMA Results (MIC) (P. aeruginosa ATCC 27853 [3]): 1~2; SCMA Results (MIC) (E. coli ATCC 25922 [4]): 0.5~1
2 | CC1(C)S[C@@H]2[C@H](NC(=O)[C@H](N)c3ccccc3)C(=O)N2[C@H]1C(=O)O [Ampicillin] | – | Filament | – | 2~8 | Normal | Normal | 0.5~2 | 0.5~1 | 0.5~2 | – | SCMA Results (MIC) (S. aureus ATCC 29213 [11]; [13]): 1 µg/mL; SCMA Results (MIC) (E. coli ATCC 25922 [4]): 2~4
3 | C[C@H]1[C@H](NC(=O)/C(=N\OC(C)(C)C(=O)O)c2csc(N)n2)C(=O)N1S(=O)(=O)O [Aztreonam] | Filament | Filament | 2~8 | 0.06~0.25 | – | – | – | – | – | 0.12 µg/mL | SCMA Results (MIC) (P. aeruginosa ATCC 27853 [3]): 2~4
4 | Cc1nnc(SCC2=C(C(=O)O)N3C(=O)[C@@H](NC(=O)Cn4cnnn4)[C@H]3SC2)s1 [Cefazolin] | – | Filament | – | 1~4 | – | – | – | – | – | 2 µg/mL | –
5 | CO/N=C(\C(=O)N[C@@H]1C(=O)N2C(C(=O)[O-])=C(C[N+]3(C)CCCC3)CS[C@H]12)c1csc(N)n1 [Cefepime] | Filament | Filament | 0.5~4 | 0.015~0.12 | – | – | – | – | – | – | SCMA Results (MIC) (P. aeruginosa ATCC 27853 [3]): 0.5~2; SCMA Results (MIC) (E. coli ATCC 25922 [4]): 0.03~0.06
6 | CO/N=C(\C(=O)N[C@@H]1C(=O)N2C(C(=O)O)=C(COC(C)=O)CS[C@H]12)c1csc(N)n1 [Cefotaxime] | Filament | Filament | 8~32 | – | – | – | – | – | – | 0.06 µg/mL | SCMA Results (MIC) (P. aeruginosa ATCC 27853 [3]; unit assumed): 16 µg/mL
7 | CO[C@@]1(NC(=O)Cc2cccs2)C(=O)N2C(C(=O)O)=C(COC(N)=O)CS[C@@H]21 [Cefoxitin] | – | Filament | – | 2~8 | – | – | – | – | – | 2 µg/mL | –
8 | CC(C)(O/N=C(\C(=O)N[C@@H]1C(=O)N2C(C(=O)[O-])=C(C[n+]3ccccc3)CS[C@H]12)c1csc(N)n1)C(=O)O [Ceftazidime] | Filament formation | Filament | 1~4 | 0.06~0.5 | – | – | – | – | – | 0.5 µg/mL | SCMA Results (MIC) (P. aeruginosa ATCC 27853 [3]): 2~4
9 | CC[C@H]1OC(=O)[C@H](C)[C@@H](O[C@H]2C[C@@](C)(OC)[C@@H](O)[C@H](C)O2)[C@H](C)[C@@H](O[C@@H]2O[C@H](C)C[C@H](N(C)C)[C@H]2O)[C@](C)(O)C[C@@H](C)C(=O)[C@H](C)[C@@H](O)[C@]1(C)O [Erythromycin] | – | – | – | – | RSG | RSG | 0.25~1 | – | 1~4 | – | SCMA Results (MIC) (E. faecalis ATCC 29212 [10]; 6 hr): 1 (6 hr); SCMA Results (MIC) (S. aureus ATCC 29213 [11]; [13]): 0.25 µg/mL
10 | C[C@@H](O)[C@H]1C(=O)N2C(C(=O)O)=C(SCCN=CN)C[C@H]12 [Imipenem] | – | – | – | – | – | – | – | – | – | 0.12 µg/mL | SCMA Results (MIC) (P. aeruginosa ATCC 27853 [3]; unit assumed): 1 µg/mL; SCMA Results (MIC) (S. aureus ATCC 29213 [11]; [13]): 0.03 µg/mL
11 | C[C@H]1COc2c(N3CCN(C)CC3)c(F)cc3c(=O)c(C(=O)O)cn1c23 [Levofloxacin] | – | – | – | – | – | – | – | 1 µg/mL | – | – | SCMA Results (MIC) (S. aureus ATCC 29213 [11]; time to result 4 hr): 0.12~0.25
12 | CC(=O)NC[C@H]1CN(c2ccc(N3CCOCC3)c(F)c2)C(=O)O1 [Linezolid] | – | – | – | – | RSG | RSG | 1~4 | 1~2 | 1~4 | – | Criteria (change in morphology and growth pattern) (E. faecalis ATCC 29212 [7]; listed as linezolid): Relatively slow growth (RSG); SCMA Results (MIC) (S. aureus ATCC 29213 [11]; time to result 4 hr): 1~4
13 | C[C@@H](O)[C@H]1C(=O)N2C(C(=O)O)=C(S[C@@H]3CN[C@H](C(=O)N(C)C)C3)[C@H](C)[C@H]12 [Meropenem] | Swelling | – | 0.25~1 | – | – | – | – | – | – | – | SCMA Results (MIC) (P. aeruginosa ATCC 27853 [3]; unit assumed): 1 µg/mL
14 | CCn1cc(C(=O)O)c(=O)c2cc(F)c(N3CCNCC3)cc21 [Norfloxacin] | – | Normal | – | 0.03~0.12 | RRG | – | – | 2~4 | 2~8 | – | SCMA Results (MIC) (E. coli ATCC 25922 [4]): 0.03~0.06
15 | Cc1onc(-c2ccccc2)c1C(=O)N[C@@H]1C(=O)N2[C@@H]1SC(C)(C)[C@@H]2C(=O)O [Oxacillin] | – | – | – | – | – | RRG | 0.12~0.5 | – | – | – | SCMA Results (MIC) (S. aureus ATCC 29213 [11]; [13]): 0.5 µg/mL
16 | CCN1CCN(C(=O)N[C@@H](C(=O)N[C@@H]2C(=O)N3[C@@H]2SC(C)(C)[C@@H]3C(=O)O)c2ccccc2)C(=O)C1=O [Piperacillin] | Filament | Filament formation | 1~8 | 1~4 | – | – | – | – | – | 2 µg/mL | SCMA Results (MIC) (P. aeruginosa ATCC 27853 [3]): 4~8
17 | CO[C@H]1/C=C/O[C@@]2(C)Oc3c(C)c(O)c4c(O)c(c(/C=N/N5CCN(C)CC5)c(O)c4c3C2=O)NC(=O)/C(C)=C\C=C\[C@H](C)[C@H](O)[C@@H](C)[C@@H](O)[C@@H](C)[C@H](OC(C)=O)[C@@H]1C [Rifampin] | – | – | – | – | RSG | RSG | 0.004~0.015 | 0.5 µg/mL | 0.5~4 | – | SCMA Results (MIC) (S. aureus ATCC 29213 [11]; 6 hr): 0.004~0.08 (6 hr)
18 | [H]/N=C(/N)N[C@H]1[C@H](O)[C@@H](O)[C@H](O[C@@H]2O[C@@H](C)[C@](O)(C=O)[C@H]2O[C@@H]2O[C@@H](CO)[C@H](O)[C@@H](O)[C@@H]2NC)[C@@H](N/C(N)=N\[H])[C@@H]1O [Streptomycin High Level, Streptomycin] | – | – | – | – | Normal | – | – | ≤ 500 µg/mL | – | – | CLSI QC range (MIC) (E. faecalis ATCC 29212 [12]; unit assumed): ≤ 500 µg/mL
19 | CC1(C)S[C@@H]2[C@H](NC(=O)[C@H](C(=O)O)c3ccsc3)C(=O)N2[C@H]1C(=O)O [Ticarcilin] | Filament | – | 8~32 | – | – | – | – | – | – | – | SCMA Results (MIC) (P. aeruginosa ATCC 27853 [3]; unit assumed): 16 µg/mL
20 | NC[C@H]1O[C@H](O[C@H]2[C@H](O)[C@@H](O[C@H]3O[C@H](CO)[C@@H](O)[C@H](N)[C@H]3O)[C@H](N)C[C@@H]2N)[C@H](N)C[C@@H]1O [Tobramycin] | Normal | – | 0.25~1 | – | – | – | – | – | – | – | –
21 | CN[C@H](CC(C)C)C(=O)N[C@H]1C(=O)N[C@@H](CC(N)=O)C(=O)N[C@H]2C(=O)N[C@H]3C(=O)N[C@H](C(=O)N[C@H](C(=O)O)c4cc(O)cc(O)c4-c4cc3ccc4O)[C@H](O)c3ccc(c(Cl)c3)Oc3cc2cc(c3O[C@@H]2O[C@H](CO)[C@@H](O)[C@H](O)[C@H]2O[C@H]2C[C@](C)(N)[C@H](O)[C@H](C)O2)Oc2ccc(cc2Cl)[C@H]1O [Vancomycin] | – | – | – | – | Normal growth | normal | 0.5~2 | 2~4 | 1~4 | – | SCMA Results (MIC) (S. aureus ATCC 29213 [11]; [13]): 1 µg/mL
22 | Penicillin | – | – | – | – | Normal | Normal | 0.25~2 | 1~2 | 1~4 | – | SCMA Results (MIC) (S. aureus ATCC 29213 [11]; [13]): 0.5 µg/mL
23 | Teicoplanin | – | – | – | – | Normal | – | – | 0.5 µg/mL | 0.25~1 | – | –
